Legend:
Assay in all cases: KINOMEscan
Assay type in all cases: binding
Conditions in all cases: read-out: Percent Control
[1] = biological target: T1, EPHA2 (Homo sapiens, UniProt P29317)
T1 construct: purchased Eurofins DiscoverX KINOMEscan (scanMAX 468)

[2] = biological target: T2, NLK (Homo sapiens, UniProt Q9UBE8)
T2 construct: purchased Eurofins DiscoverX KINOMEscan (scanMAX 468)

[3] = biological target: T3, PIK3CA(I800L) (Homo sapiens, UniProt P42336, I800L)
T3 construct: purchased Eurofins DiscoverX KINOMEscan (scanMAX 468)
T3 sequence (P42336 whole entry I800L): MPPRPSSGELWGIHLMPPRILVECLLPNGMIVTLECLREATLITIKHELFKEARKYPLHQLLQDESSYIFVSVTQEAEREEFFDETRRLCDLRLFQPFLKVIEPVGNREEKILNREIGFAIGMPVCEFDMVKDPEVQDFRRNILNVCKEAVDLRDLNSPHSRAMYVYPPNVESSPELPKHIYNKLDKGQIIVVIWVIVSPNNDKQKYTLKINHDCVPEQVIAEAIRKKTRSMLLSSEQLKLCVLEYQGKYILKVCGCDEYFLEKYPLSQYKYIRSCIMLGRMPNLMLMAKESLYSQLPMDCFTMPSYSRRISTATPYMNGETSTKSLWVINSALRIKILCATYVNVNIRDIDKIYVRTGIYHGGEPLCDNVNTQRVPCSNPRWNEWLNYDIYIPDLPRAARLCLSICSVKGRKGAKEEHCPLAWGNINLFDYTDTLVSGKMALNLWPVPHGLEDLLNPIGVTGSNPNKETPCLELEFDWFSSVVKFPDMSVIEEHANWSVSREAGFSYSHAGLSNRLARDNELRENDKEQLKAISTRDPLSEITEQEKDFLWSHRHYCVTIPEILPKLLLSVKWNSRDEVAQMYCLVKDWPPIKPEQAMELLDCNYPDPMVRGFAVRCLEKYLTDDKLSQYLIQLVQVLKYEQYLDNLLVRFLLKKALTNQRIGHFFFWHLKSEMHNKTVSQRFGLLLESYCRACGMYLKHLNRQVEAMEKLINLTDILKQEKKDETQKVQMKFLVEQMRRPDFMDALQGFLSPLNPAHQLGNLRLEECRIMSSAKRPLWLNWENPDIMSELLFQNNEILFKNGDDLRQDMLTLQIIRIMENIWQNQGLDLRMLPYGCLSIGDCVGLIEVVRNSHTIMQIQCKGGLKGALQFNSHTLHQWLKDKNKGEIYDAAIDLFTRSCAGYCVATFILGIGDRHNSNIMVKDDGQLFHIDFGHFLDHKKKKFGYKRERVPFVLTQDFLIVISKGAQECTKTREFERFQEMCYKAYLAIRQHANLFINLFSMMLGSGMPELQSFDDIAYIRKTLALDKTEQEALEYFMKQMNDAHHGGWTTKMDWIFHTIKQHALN

T2 sequence (Q9UBE8 whole entry): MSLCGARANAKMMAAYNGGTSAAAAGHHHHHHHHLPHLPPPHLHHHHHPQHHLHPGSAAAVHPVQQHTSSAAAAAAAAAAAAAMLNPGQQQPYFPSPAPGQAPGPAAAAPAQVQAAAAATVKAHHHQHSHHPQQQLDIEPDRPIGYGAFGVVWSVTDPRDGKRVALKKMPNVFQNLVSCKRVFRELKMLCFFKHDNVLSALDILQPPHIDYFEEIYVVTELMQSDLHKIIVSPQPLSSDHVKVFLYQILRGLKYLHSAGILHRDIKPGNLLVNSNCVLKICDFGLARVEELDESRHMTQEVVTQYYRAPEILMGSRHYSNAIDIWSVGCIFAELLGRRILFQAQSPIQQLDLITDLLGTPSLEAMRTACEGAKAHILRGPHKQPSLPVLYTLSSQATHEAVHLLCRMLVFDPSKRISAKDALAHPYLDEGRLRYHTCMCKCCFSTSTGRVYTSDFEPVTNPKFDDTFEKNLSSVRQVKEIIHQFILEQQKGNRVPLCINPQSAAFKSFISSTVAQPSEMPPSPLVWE
T1 sequence (P29317 24-976): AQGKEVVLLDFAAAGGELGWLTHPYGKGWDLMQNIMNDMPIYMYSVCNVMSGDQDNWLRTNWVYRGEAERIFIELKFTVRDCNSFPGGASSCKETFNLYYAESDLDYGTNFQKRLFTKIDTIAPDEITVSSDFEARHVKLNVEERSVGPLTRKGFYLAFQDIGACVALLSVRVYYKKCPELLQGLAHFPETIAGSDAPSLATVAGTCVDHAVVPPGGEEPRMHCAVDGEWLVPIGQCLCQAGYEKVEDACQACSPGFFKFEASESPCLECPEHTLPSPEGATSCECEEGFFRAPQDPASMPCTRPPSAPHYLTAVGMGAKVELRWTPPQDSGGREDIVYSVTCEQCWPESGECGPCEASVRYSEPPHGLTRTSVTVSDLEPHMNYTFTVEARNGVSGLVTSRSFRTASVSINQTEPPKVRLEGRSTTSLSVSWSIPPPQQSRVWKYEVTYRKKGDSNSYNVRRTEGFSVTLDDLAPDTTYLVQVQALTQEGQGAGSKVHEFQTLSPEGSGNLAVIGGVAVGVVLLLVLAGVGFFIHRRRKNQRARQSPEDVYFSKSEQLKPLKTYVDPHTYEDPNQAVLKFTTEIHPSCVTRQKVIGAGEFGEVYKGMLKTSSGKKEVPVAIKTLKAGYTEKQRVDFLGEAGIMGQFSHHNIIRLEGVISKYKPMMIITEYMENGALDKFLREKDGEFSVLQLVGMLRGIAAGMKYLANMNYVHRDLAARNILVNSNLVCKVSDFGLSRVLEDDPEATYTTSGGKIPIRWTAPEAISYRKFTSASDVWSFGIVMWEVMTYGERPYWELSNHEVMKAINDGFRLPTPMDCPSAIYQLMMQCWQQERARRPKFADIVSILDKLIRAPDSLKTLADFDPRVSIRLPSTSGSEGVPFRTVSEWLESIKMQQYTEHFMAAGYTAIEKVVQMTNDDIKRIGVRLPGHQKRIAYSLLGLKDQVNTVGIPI

## Cc1ccc(-n2cc(COc3cccc4cnc(Nc5cccc(Cl)c5)nc34)nn2)c([N+](=O)[O-])c1 [DB18]
[1]
  remaining binding at 1 µM: 100%
[2]
  remaining binding at 1 µM: 87%
[3]
  remaining binding at 1 µM: 77%

From paper PMC9571063 (Molecules, 2022)
